Data as given in patent publication US7842683B2, “Neurotherapeutic compositions and method” (Revaax Pharmaceuticals, LLC, priority 1999, dated 2010).

Legend:
[1] = tested on: bacteria; conditions: cited from earlier work
[2] = human, in vivo; cited from earlier work
[3] = tested on: male golden hamsters; assay: Resident/intruder paradigm of offensive aggression; format: in vivo, Syrian golden hamsters (Mesocricetus auratus); conditions: D vs L isomer, 50 μg/kg IP
Method: Male Syrian golden hamsters (Mesocricetus auratus) (140-150 g) obtained from Harlan Sprague-Dawley Laboratories (Indianapolis, Ind.) were housed individually in Plexiglas cages (24 cm×24 cm×20 cm), maintained on a reverse light:dark cycle (14L:10D; lights on at 19:00 hr) and provided food and water ad libitum. Animals were acclimated to the reverse light:dark cycle for at least two weeks before testing. All behavioral tests were conducted during the dark phase of the circadian cycle. All animals were acquired and cared for in accordance with the guidelines published in the Guide for the Care and Use of Laboratory Animals (National Institutes of Health Publications No. 85-23, Revised 1985).
(§1) Agonistic behavior can be classified as either offensive or defensive aggression (Blanchard and Blanchard, 1977; Adams, […]; Albert and Walsh, 1984). Offensive aggression is characterized by the aggressor initiating an attack on an opponent, while defensive aggression lacks active approach. Both types of aggression have their own unique neurobehavioral systems. The stimuli that elicit offensive and defense attack are different, as are the sequences of behaviors that accompany each agonistic response. […] Offensive aggression is easily studied using male golden hamsters tested in a resident/intruder paradigm, an established model of offensive aggression (Ferris and Potegal 1988). Placing an unfamiliar male hamster into the home cage of another male hamster elicits a well-defined sequence of agonistic behaviors from the resident that includes offensive aggression.
(§2) Hamsters are nocturnal and as such all behavioral tests were performed during the first four hrs of the dark phase under dim red illumination. The resident was scored for offensive aggression, e.g., latency to bite the intruder, the total number of bites, total contact time with the intruder and flank marking over a 10 min test period (Ferris and Potegal, 1988). Flank marking is a form of olfactory communication in which a hamsters arches its back and rubs pheromone producing flank glands against objects in the environment (Johnson, 1986).
Parametric data, i.e., latencies and contact time, were analyzed with a one-way ANOVA followed by Newman-Keuls post hoc tests. Non parametric data, i.e., number of bites and flank marks, were analyzed with Kruskal-Wallis tests followed by Mann-Whitney U tests to determine differences between groups. Two sample comparisons were analyzed with paired and unpaired t-Tests for parametric data and Wilcoxon and Mann-Whitney Tests for paired and unpaired non-parametric data, respectively.
as §1, with “by an” for “by the”, “an opponent; while,” for “an opponent, while”, “Potegal 1988) in the context of defending the home burrow.” for “Potegal 1988).”
as §2, with “Flank marking is a form of olfactory communication in which a hamsters arches its back and rubs pheromone producing flank glands against objects in the environment (Johnson, 1986).” left out

[4] = tested on: rats; assay: Motor activity in an open field (plus-maze animals); format: in vivo, rat; conditions: 1 mM direct injection into the brain, 30 min prior to plus-maze
Method: However, this depression of motor activity disappears following repeated administration of CDP over several days. […] To control for any non-specific effects of Mox and CDP on motor activity following their direct injection into the brain, animals were tested in the open field 30 min prior to testing in the plus (FIG. 18).
Immediately after each of the plus-maze tests reported above in Section II, animals were tested for general motor activity in an “open field.” Animals were placed into a large clean Plexiglas cage (48×32×40 cm) devoid of bedding. This open field was delineated into equal quadrants by tape on the underside of the cage. Animals were scored for motor activity by counting the number of quadrants traversed in 1 min.

[5] = tested on: golden hamsters; assay: Seed finding model of anxiety; format: in vivo, Syrian golden hamsters (Mesocricetus auratus); conditions: dose not given
Description: Clavulanic acid (CLAV) is structurally similar to the beta-lactam antibiotics. A most robust and simple bioassay for screening beta-lactams for CNS activity is the golden hamster seed finding model of anxiety. Briefly, hamsters are deprived of food overnight. The following day they are exposed to the additional stress of being taken from their home cage and placed in a novel environment for a few minutes. This manipulation stimulates the release of the stress hormone cortisol (FIG. 37). During their absence from the home cage, sunflower seeds are hidden under the bedding in one of the corners. When returned to the home cage, hamsters routinely scramble along the walls for 1-2 min before settling down, locating and eating the seeds. However, animals treated with the benzodiazepine anxiolytic chlordiazepoxide find seeds in less than 10 sec.
Male, Syrian golden hamsters (Mesocricetus auratus) (120-130 g) obtained from Harlan Sprague-Dawley Laboratories (Indianapolis, Ind.) were housed individually in Plexiglas cages (24 cm×24 cm×20 cm), maintained on a reverse light:dark cycle (14L:10D; lights on at 19:00 hr) and provided food and water ad libitum. A range of concentrations of CLAV (saline vehicle, 0.1, 1.0, 10, 100 1,000 ng/kg) were tested in six groups of hamsters (4-8/group)(FIG. 25). All tests were conducted during the dark phase of the circadian cycle under dim red illumination. Prior to testing all animals were fasted for 20-24 hrs. Ninety min after intraperitoneal (IP) injection of drug, animals were taken from their home cage and placed into a holding cage for 2 min. During their absence, six sunflower seeds were buried under the bedding in one corner of their home cage. Animals were placed back into their home cage randomly facing any one of the empty corners and timed for their latency to find the seeds in a five min observation period. Latency times were analyzed with a one-way ANOVA followed by Scheffe's post hoc tests. Assumption of equal variances was tested (Hartley's F-max=2.1 p>0.05)
It was hypothesized that CLAV functioned as an anxiolytic in the seed finding assay by blocking NAALADase activity in the brain. If this notion were true then it would be predicted that drugs known to block NAALADase should also enhance seed finding. To this end, animals were treated with N-acetyl-beta-aspartyl-glutamic acid (beta-NAAG), a competitive inhibitor of NAALADase (Serval et al., 1992) and tested in the seed finding model of anxiety. The study was similar to that outlined in Section I with one notable exception. […] Beta-NAAG (FW 304) was given in a dose of 3 ng in a volume of 1 μl saline ICV. The average adult hamster brain weights ca. 1.2 g of which 22% is extracellular fluid. The estimated beta-NAAG concentration was 11 ng/ml or 36 nM.
Two groups of six animals each were fasted overnight as previously described and tested the following day. One group was treated with beta-NAAG and the other saline vehicle and one hr later timed for latency to find the hidden sunflower seeds. A Student t-test for unpaired data was used for statistical comparisons.

[6] = tested on: Male Wistar rats; assay: Elevated plus-maze (anxiolytic activity); format: in vivo, rat; conditions: 1 mM, 2 ul into lateral ventricle, 60 min
Description: (§3) The elevated plus-maze was developed for the detection of anxiolytic and anxiogenic drug effects in the rat (Pellow et al., 1985). The method has been validated behaviorally, physiologically, and pharmacologically. The plus-maze consists of two open arms and two enclosed arms. […] Conversely, anxiogenic compounds like yohimbin or amphetamines reduce open arm entries and time spent in the open arms.
Male Wistar rats weighing 250-300 g were group housed in a normal 12:12 light-dark cycle light on at 0800 hr and provide food and water ad libitum. The plus-maze consisted of two open arms, 50×10 cm, and two enclosed arms 50×10×40 cm with an open roof, arranged such that the two open arms were opposite to each other. The maze was elevated to a height of 50 cm.
Eight animals were tested in the plus-maze 90 min following IP injection with 50 μg/kg Mox and saline vehicle. The order of treatments was counter balanced with at least 48 hrs between injections. At the start of the experiment the animal was place in the center of the plus maze facing the closed arm. Over a five min observation period, animals were scored for the latency to enter the closed arm, time spent in the closed arm and the number of open arm entries following the first occupation of the closed arm (FIG. 7).
Because Mox and CDP have different bioavailability profiles, e.g. brain penetrance, their CNS activity could not be compared by giving systemic injections of equimolar concentrations of each drug. Instead it was necessary to give both drugs directly into the cerebroventricular system to by pass the blood brain barrier. Animals were anesthetized with sodium pentobarbital (50 mg/kg), implanted with microinjection guide cannulae aimed at the lateral ventricle and allowed to recover for two days before testing. To groups of six animals each were tested with Mox or CDP. Each animals received a injection of drug and 0.9% NaCl vehicle on two separate days. The order of injections was counterbalanced and separated by two days. Both Mox and CDP were prepared in 0.9% NaCl at a concentration of 1 mM. All injections were given in a volume of 2 ul over 10 secs in fully conscious, restrained animals. Sixty min later animals were tested in the plus-maze for a 3 min observation period and scored for behaviors as noted previously.
as §3, with “screening” for “the detection of”
Male Wistar rats weighing 250-300 g were group housed in a normal 12:12 light-dark cycle with light on at 0800 hr and provided food and water ad libitum. The plus-maze consisted of two open arms, 50 cm long, 10 cm wide, with walls 40 cm high made of clear Plexiglas. The two closed arms had the same dimensions but included a roof. The Plexiglas for the closed arms was painted black. Each pair of arms was arranged opposite to each other to form the plus-maze. The maze was elevated to a height of 50 cm. Eighteen animals were tested in the plus-maze 90 min following the IP injection of 1.0 μg/kg CLAV, 50 or vehicle control in a volume of ca. 0.3 ml. The order of treatments was counter balanced with at least 48 hrs between injections. At the start of the experiment, the animal was placed at the end of one of the open arms. Over a five min observation period, animals were scored for the latency to enter the closed arm, time spent in the closed arm and the number of open arm entries following the first occupation of the closed arm. The study produced tables of repeated measures. The data between treatments were compared with a two-way, repeated measures ANOVA followed by Bonferroni post hoc tests. […]

SMILES	antibacterial activity [1]	unbound fraction to plasma protein vs L isomer [2]	contact time [3]	flank marking [3]	isomer affecting offensive aggressive behavior [3]	bite latency ([3]; 90 min)	number of bites ([3]; 90 min)	general motor activity in the open field [4]	time to find seeds [5]	time spent in the closed arm (dark) [6]	latency to enter the closed arm ([6]; 3 min observation)
CO[C@@]1(NC(=O)C(C(=O)O)c2ccc(O)cc2)C(=O)N2C(C(=O)O)=C(CSc3nnnn3C)CO[C@@H]21 (some centres unmarked) [D Mox]	has antibacterial activity	greater unbound fraction	no significant difference	no significant difference	active isomer	significantly increased	reduced				
CNC1=Nc2ccc(Cl)cc2C(c2ccccc2)=[N+]([O-])C1 [CDP, Chlordiazepoxide]								no significant effect	less than 10 sec	no effect	no effect
